As usually defined, the pIC50 is the negative decadic logarithm of the IC50, by convention in mol/L. The term AUC(0-t) denotes exposure summed from dosing to a finite time, without extrapolation to infinity. Read a high AUC(0-t) as more exposure. The MRT is the average time that molecules of a dose stay in the body. As a reminder, the clearance is the volume of plasma or blood freed of the substance per unit of time. A higher clearance goes with a high capacity for elimination. The half-life is how long it takes for the measured level to halve.

The text below walks through data of patent publication US9718787B2, “Poly (ADP-ribose) polymerase inhibitor” (CHENGDU DI'AO PHARMACEUTICAL GROUP CO., LTD., priority 2011, dated 2017).

Series [1] deals with breast cancer cell line MDA-MB-361. Put plainly: Cell proliferation inhibition assay, MDA-MB-361 (Cell Titer-Glo, 5 days). Type of series: cell-based. The note with it: Homo sapiens, 120 h; MDA-MB-361, 5 days; read-out: IC50 MD-MBA-361. The text has this:
(§1) This assay was used to study the effect of PARP-1 inhibitor alone for tumor suppression. Breast cancer susceptibility genes BRCA1 and BRCA2 play an important role in homologous recombination DNA repair. BRCA-mutant (or deficient) cells represent homologous recombination repair defect, if PARP-mediated DNA repair is inhibited at the same time, DNA damage in cells may be increased, resulting in chromatin abnormality or even cell death.
(§2) BRCA-mutant (or deficient) human prostatic cancer cell line DU-145, lung adenocarcinoma cell line SW-1271, as well as breast cancer cell lines MDA-MB-436 and MDA-MB-361 were selected for the assay, PARP inhibitor was used alone to evaluate its damage effect on cells. The inhibition effect of the compound was expressed by IC50.
(§3) Prostatic cancer cell line DU-145 grown in EMEM supplement with 10% FBS was seeded in 96 well tissue culture plates (2000 cells/well). Lung adenocarcinoma cell line SW-1271 grown in L15 supplement with 10% FBS was seeded in 96 well tissue culture plates (4000 cells/well), and breast cancer cell line MDA-MB-361 grown in L15 supplement with 20% FBS was seeded in 96 well tissue culture plates (4000 cells/well). Test compounds (10 mM stock solution in DMSO) and reference compound staurosporine (1 mM stock solution in DMSO) were diluted by DMSO for 200 times to obtain the desired final concentration. 0.5 ul compound dilutions were directly added to the cells in 96 well plates, and the cells were incubated at 37° C. for 5 days. HPE control wells were added 1 uM staurosporine dilution, while ZPE wells were added 0.5% DMSO. After 5 days plates were equilibrated to room temperature and 50 ul of Cell Titer-Glo Reagent (Promega) was added to the culture wells. The plates were agitated briefly and luminescence signal was measured with Envision (PerkinElmer). […] IC50 values were calculated with Prism software (Graph Pad, San Diego, Calif., USA) for both test compounds and reference compound staurosporine.
For orientation: ATP-based viability assays read luminescence as a measure of living cells.

Series [2] can be described thus: Pharmacokinetic test in male SD rats, tail vein injection. Type of series: in vivo, rat. Particulars: for AUC(0-t) / MRT / clearance / half-life / Vd: rat, plasma, iv, 15 mg/kg tail vein injection; for Vd: read-out: Vdss. The procedure:
Male SD rats were used as experimental animals in this test. […] LC-MS/MS method was used to test blood drug concentration, and Winnonlin 6.1 software was used to calculate pharmacokinetic parameters to study and evaluate the pharmacokinetic properties.
12 male SD rats weighed 180-260 g, purchased from Vital River Laboratory Animal Technology Co., Ltd.
0.2 mL blood was collected through jugular vein before dosing and at 5 min, 15 min, 30 min, 1 h, 2 h, 4 h, 8 h, 12 h and 24 h after the dosing, respectively, and put into heparinized tubes. The samples were centrifuged for 10 min at 5500 rpm to separate plasma, and stored at −30° C.
An aliquot of 20 μL of plasma sample was added with 200 μL acetonitrile (containing 5.00 ng/mL verapamil and 50.0 ng/mL glibenclamide as internal standards). The mixture was vortexed for 4 min, and then centrifuged at 3700 rpm for 18 min. An aliquot of 70 μL supernatant was added into 70 μL water, and then vortexed for 4 min. Finally, 10 μL of the mixture was injected into the LC-MS/MS system for analysis.
An aliquot of 30 μL of plasma sample was added with 150 μL acetonitrile (containing 5.00 ng/mL verapamil and 50.0 ng/mL glibenclamide as internal standards). The mixture was vortexed for 5 min, and then centrifuged at 3700 rpm for 18 min. An aliquot of 70 μL supernatant was added into 70 μL water, and then vortexed for 5 min. Finally, 10 μL of the mixture was injected into the LC-MS/MS system for analysis.
Winnonlin 6.1 software was used to calculate pharmacokinetic parameters.

Series [3] concerns lung adenocarcinoma cell line SW-1271. Put plainly: Cell proliferation inhibition assay, SW-1271 (Cell Titer-Glo, 5 days). The note with it: Homo sapiens, SW1271, 120 h; SW-1271, 5 days. It is filed as cell-based.
Text: as §1, §2, §3

For series [4], the system named is prostatic cancer cell line DU-145. Put plainly: Cell proliferation inhibition assay, DU-145 (Cell Titer-Glo, 5 days). It is filed as cell-based. Particulars: Homo sapiens, 120 h; DU-145, 5 days.
In series [5] the test system is mice following a two hour occlusion of the MCA. The note with it: intracerebroventricular administration; cited from earlier work.
A short description of series [6]: Solubility test (thermodynamic solubility in pH 7.4 phosphate buffer, HPLC). Type of series: physicochemical. The procedure: In this test, excess amount of test sample was added into pH=7.4 phosphate buffer. Ultrasonic was performed for 30 min until the drug no longer dissolved. The solution was continuously shaked for 24 hours at a constant temperature of 25° C. to achieve a thermodynamic equilibrium of compound, and then the solution was filtrated to get filtrate. Quantitative analysis of compound in filtrate using external standard method is performed according to “Appendix VD High Performance Liquid Chromatography, Part II of Pharmacopeia 2010,” and the sample thermohynamic solubility in pH=7.4 phosphate buffer was determined.
Agilent 1200 LC, Phenomen C18 column (4.6 mm*150 mm, […]), mobile phase: methanol:water (60:40), flow rate: 1 mL/min, column temperature: 25° C., wave length: 230 nm, injection volume: 10 μL
About 30 mg test compound was put in a 10 mL volumetric flask, about 8 mL pH=7.4 phosphate buffer was added and ultrasonic was performed for 30 min, and the solution was shaked for 24 hours in a shaker at a constant temperature of 25° C. The solution was settled for half an hour under 25° C., filtered with 0.45 μm hydrophilic filter. The filtrate was used as test sample. […]
The test solution was injected for three times according to the above chromatographic conditions. The peak area was measured to calculate the corresponding concentration. […]

The subject of series [7] is rat model of focal cerebral ischemia. Particulars: i.p. 10 mg/kg two hours prior to and two hours after initiation of ischemia; cited from earlier work.

pIC50: −log10 of the molar value.

Take `O=C(c1cc(Cc2n[nH]c(=O)c3ccccc23)ccc1F)N1CCN(C(=O)C2CC2)CC1` [AZD-2281, olaparib]: the negative-log IC50 (pIC50) in series [1] is below 5.00. Further, in series [2] (15 mg/kg i.v.), the exposure result was “low exposure” and the metabolic stability result is “poor metabolic stability”. Further, in series [2], the AUC(0-t) worked out at 6.44 µg·h/mL, the mean residence time (MRT) was determined as 19.8 min, the clearance was 2.35 L/h/kg and the half-life is 40.9 min. Further, in series [2], the Vd is 0.766 L/kg. Also, in series [3], the pIC50 is 4.76. In addition, the pIC50 in series [4] is 4.19.
As to `NC(=O)c1cccc(N)c1` [Compound 3-AB, 3-aminobenzamide], in series [5], the “decrease in infarct volume” value is given as 47%.
Consider `O=C(c1cc(Oc2n[nH]c(=O)c3ccccc23)ccc1F)N1CCN(C(=O)N2CCCCC2)CC1` [Compound 85, 4-(4-fluoro-3-(4-(piperidine-1-carbonyl)piperazine-1-carbonyl)phenoxy)-2H-phthalazin-1-one], for which the pIC50 was 5.62 in series [1], 5.82 in series [3] and 5.43 in series [4].
On to `O=C(c1cc(Oc2n[nH]c(=O)c3ccccc23)ccc1F)N1CCN(C(=O)C2CCC(F)(F)CC2)CC1` [Compound 107, 4-(3-(4-(4,4-difluorocyclohexanecarbonyl)piperazine-1-carbonyl)-4-fluorophenoxy)2H-phthalazin-1-one], for which the results for the negative-log IC50 (pIC50) in series [1] and in series [3] were 5.72 and 6.11, respectively.
`CN(C)C1(C(=O)N2CCN(C(=O)c3cc(Oc4n[nH]c(=O)c5ccccc45)ccc3F)CC2)CC1` [Compound 124, 4-(3-(4-(1-(dimethylamino)cyclopropanecarbonyl)piperazine-1-carbonyl)-4-fluorophenoxy)2H-phthalazin-1-one]: in series [6], the “water solubility relative to AZD-2281” value is “enhanced by almost twice”. Moreover, the “pharmacokinetic properties relative to AZD-2281” value in series [2] (15 mg/kg i.v.) is recorded as “significantly superior to AZD-2281”. In series [2], this compound had an AUC(0-t) of 10.1 µg·h/mL, an MRT of 22.4 min, a clearance of 1.68 L/h/kg and a half-life of 185 min. Besides, the Vd in series [2] was 0.665 L/kg. For the same compound, the pIC50 in series [3] was 5.80. In series [4], the pIC50 is 5.57.
For `CN(C)C1(C(=O)N2CCN(C(=O)c3cc(Oc4n[nH]c(=O)c5ccccc45)ccc3F)CC2)CCC1` [Compound 126, 4-(3-(4-(1-(dimethylamino)cyclobutanecarbonyl)piperazine-1-carbonyl)-4-fluorophenoxy)2H-phthalazin-1-one], the pIC50 in series [1] was 5.40; in series [3], 5.96; in series [4], 5.72.
On to `O=C1NCCc2c(OCCCCN3CCCCC3)cccc21` [DPQ, 3,4-dihydro-5-[4-(1-piperidinyl)butoxy]-1 (2H)-isoquinolinone], for which, in series [7], the “reduction in infarct volume” value was 54%.
